According to US3997506A (priority 1974, dated 1976):
Several values for one entry are separate records, joined by “and”; a condition that tells them apart may be missing. Equal values may be shown once. Read-outs that look alike come from different tables or passages of the source.

Tests used:
leucocytes from rats [1] = details: 6 hours after administration, 2 mg/kg oral
in vitro [2] = details: human, leucocytes, % of dead cells (Average of 2 determinations), no PHA
human leucocytes [3] = tested on: human leucocytes
human leucocytes [4] = details: 0.01 μg/ml to 10 μg/ml; up to 30 hours; no PHA
[5] = tested on: oedema produced by crystals of urate in the hind paw of the rat; type: in vivo, Sprague Dawely female rats; details: for % of inhibition of edema / Difference in weight between left and right leg (Average ± standard deviation of mean term): three subcutaneous injections, 6 h after urate
human leucocytes [6] = assay: in vitro; type: cell-based; details: for % of dead cells: C6 = 50 μg/ml
Description: (§1) The cytotoxicity has been investigated on human leucocytes by means of the viability test with Trypan blue.
(§2) a. In a first experimentation cultures of leucocytes of a voluntary […] were prepared and caused to undergo incubation with phytohemagglutinin (PHA) and with different concentrations of colchicine or of its derivative (C1 = 2.5 μg/ml of culture, C3 = 10 μg/ml, C5 = 30 μg/ml, C6 = 50 μg/ml). Leucocytes only containing PHA served as controls.
(§3) After 3, 42, 68 and 72 hours of incubation a sample of each culture was contacted by a drop of Trypan blue and laid on a slide of a microscope. Then took place the counting of the dead cells (those with assumed an […] colour) and of all the cells present on the slide in order to obtain the ratio of the number of dead cells to the total number of cells. The results expressed as a rate in per cent are shown in the accompanying table 8.
(§4) b. After the experimentation which has just been described, the study of cytotoxicity has been continued with two other samples of human leucocytes still by means of the viability test with Trypan blue.
(§5) C1 = 2.5 μg/ml of culture
(§6) C6 = 50 μg/ml of culture;
(§7) and for the carboxy-1-adamantane fraction to:
(§8) C3 = 4.5 μg/ml of culture
(§9) C6 = 22.5 μg/ml of culture.
(§10) Leucocytes only containing phytohemagglutinin and others containing phytohemagglutinin and 50 μl of methanol served as controls.
(§11) The percentage of dead cells was determined after different numbers of hours of incubation.

in vitro [7] = type: cell-based, human; details: human, leucocytes, read-out: % of dead cells
Description: as §1, §2, §3, §4, §5, §6, §7, §8, §9, §10, §11

leucocytes from rats [8] = details: individual rat, 2 mg/kg oral
leucocytes from rats [9] = type: in vivo, Sprague Dawley SIV 50 he-rats; details: 2 mg/kg oral
leucocytes from rats [10] = details: individual rat, 2 mg/kg oral; remark: listed apart in the source
[11] = first experimentation, C1 = 2.5 μg/ml
[12] = first experimentation, C3 = 10 μg/ml
[13] = first experimentation, C5 = 30 μg/ml
[14] = 6 hours after administration, individual rat, 2 mg/kg
[15] = before administration, individual rat, 2 mg/kg

SMILES: COc1cc2c(c(OC)c1OC)-c1ccc(SC)c(=O)cc1C(NC(=O)C13CC4CC(CC(C4)C1)C3)CC2 (single isomer, unassigned) [Derivative, N-desacetyl-N-adamantoyl-thiocolchicine]
- cytotoxic effect (in words) (leucocytes from rats [1]): no cytotoxic effect has been noticed
- % of dead cells (leucocytes from rats [1]; individual rat, 2 mg/kg, 360 min): 2% and 1% and 0%
- cytotoxicity at 6 h (in vitro [2]; C1 = 0.01 μg/ml): 1%
- cytotoxicity at 6 h (in vitro [2]; C2 = 0.1 μg/ml): 1%
- cytotoxicity at 6 h (in vitro [2]; C3 = 0.5 μg/ml): 0%
- cytotoxicity at 6 h (in vitro [2]; C4 = 1.0 μg/ml): 1%
- cytotoxicity at 6 h (in vitro [2]; C5 = 2.5 μg/ml): 1%
- cytotoxicity at 6 h (in vitro [2]; C6 = 10.0 μg/ml): 1%
- cytotoxicity at 30 h (in vitro [2]; C1 = 0.01 μg/ml): 64%
- cytotoxicity at 30 h (in vitro [2]; C2 = 0.1 μg/ml): 54%
- cytotoxicity at 30 h (in vitro [2]; C3 = 0.5 μg/ml): 50%
- cytotoxicity at 30 h (in vitro [2]; C4 = 1.0 μg/ml): 49%
- cytotoxicity at 30 h (in vitro [2]; C5 = 2.5 μg/ml): 45%
- cytotoxicity at 30 h (in vitro [2]; C6 = 10.0 μg/ml): 67%
- cytotoxicity at 48 h (in vitro [2]; C1 = 0.01 μg/ml): 93%
- cytotoxicity at 48 h (in vitro [2]; C2 = 0.1 μg/ml): 95%
- cytotoxicity at 48 h (in vitro [2]; C3 = 0.5 μg/ml): 91%
- cytotoxicity at 48 h (in vitro [2]; C4 = 1.0 μg/ml): 94%
- cytotoxicity at 48 h (in vitro [2]; C5 = 2.5 μg/ml): 88%
- cytotoxicity at 48 h (in vitro [2]; C6 = 10.0 μg/ml): 91%
- number of leucocytes with increasing amounts (in words) (human leucocytes [3]; Table 9, 72 hours): still further lowered with the same amounts of the derivative
- Count of leucocytes after 72 hours (human leucocytes [3]; Table 9, C1 = 2.5 μg/ml, control 412,500): 487,000
- Count of leucocytes after 72 hours (human leucocytes [3]; Table 9, C3 = 10 μg/ml, control 412,500): 360,000
- Count of leucocytes after 72 hours (human leucocytes [3]; Table 9, C5 = 30 μg/ml, control 412,500): 180,000
- Count of leucocytes after 72 hours (human leucocytes [3]; Table 9, C6 = 50 μg/ml, control 412,500): 157,000
- Count of leucocytes after 72 hours (human leucocytes [3]; Table 11, Culture I, C3 = 10 μg/ml): 430,000
- Count of leucocytes after 72 hours (human leucocytes [3]; Table 11, Culture I, C6 = 50 μg/ml): 515,000
- Count of leucocytes after 72 hours (human leucocytes [3]; Table 11, Culture II, C1 = 2.5 μg/ml): 140,000
- Count of leucocytes after 72 hours (human leucocytes [3]; Table 11, Culture II, C3 = 10 μg/ml): 200,000
- Count of leucocytes after 72 hours (human leucocytes [3]; Table 11, Culture II, C5 = 30 μg/ml): 245,000
- Count of leucocytes after 72 hours (human leucocytes [3]; Table 11, Culture II, C6 = 50 μg/ml (two values given)): 290,000 and 345,000
- number of leucocytes in absence or presence of substance (in words) (human leucocytes [3]; Table 11, very approximative): remain substantially the same
- cytotoxicity (in words) (human leucocytes [4]): no cytotoxicity is detectable
- % of inhibition of edema ([5]; 2 mg/kg): 10%
- Difference in weight between left and right leg (Average ± standard deviation of mean term) ([5]; 2 mg/kg): 0.264 ± 0.031 g
- % of inhibition of edema ([5]; 6 mg/kg): 50%
- Difference in weight between left and right leg (Average ± standard deviation of mean term) ([5]; 6 mg/kg): 0.145 ± 0.019 g
- protection against the oedema produced by crystals of urate (in words) ([5]; colchicine 2 mg/kg, derivative 6 mg/kg): significant protection
- cytotoxicity, cultures I and II (in words) (human leucocytes [6]; Cultures I and II): does not seem to be very different from that of colchicine or methanol after 23 hours of incubation; however for longer periods of time and more especially with concentrations C5 and C6 it becomes more substantial
- % of dead cells (human leucocytes [6]; first experimentation, 68 hours): very few
- % of dead cells (human leucocytes [6]; first experimentation, 72 hours): very few
- cytotoxicity, colchicine versus derivative (in words) (human leucocytes [6]; [11]): substantially the same
- cytotoxicity compared with colchicine (in words) (human leucocytes [6]; first experimentation, higher concentrations): more cytotoxic than colchicine itself
- cytotoxicity at 4 h (in vitro [7]; Culture I, C3 = 10 μg/ml): 15%
- cytotoxicity at 4 h (in vitro [7]; Culture I, C6 = 50 μg/ml): 17%
- cytotoxicity at 22 h (in vitro [7]; Culture I, C3 = 10 μg/ml): 12%
- cytotoxicity at 22 h (in vitro [7]; Culture I, C6 = 50 μg/ml): 22%
- cytotoxicity at 46 h (in vitro [7]; Culture I, C3 = 10 μg/ml): 42%
- cytotoxicity at 46 h (in vitro [7]; Culture I, C6 = 50 μg/ml): 53%
- cytotoxicity at 76 h (in vitro [7]; Culture I, C3 = 10 μg/ml): 40%
- cytotoxicity at 76 h (in vitro [7]; Culture I, C6 = 50 μg/ml): 62%
- cytotoxicity at 23 h (in vitro [7]; Culture II, C1 = 2.5 μg/ml): 8%
- cytotoxicity at 23 h (in vitro [7]; Culture II, C3 = 10 μg/ml): 11%
- cytotoxicity at 23 h (in vitro [7]; Culture II, C5 = 30 μg/ml): 16%
- cytotoxicity at 46 h (in vitro [7]; Culture II, C1 = 2.5 μg/ml): 4%
- cytotoxicity at 46 h (in vitro [7]; Culture II, C3 = 10 μg/ml): 13%
- cytotoxicity at 46 h (in vitro [7]; Culture II, C5 = 30 μg/ml): 22%
- cytotoxicity at 72 h (in vitro [7]; Culture II, C1 = 2.5 μg/ml): 26%
- cytotoxicity at 72 h (in vitro [7]; Culture II, C3 = 10 μg/ml): 41%
- cytotoxicity at 72 h (in vitro [7]; Culture II, C5 = 30 μg/ml): 43%
- cytotoxicity at 72 h (in vitro [7]; Culture II, C6 = 50 μg/ml, *x/x = 2 different tubes): 61%
- cytotoxicity at 3 h (in vitro [7]; [11]): 0%
- cytotoxicity at 3 h (in vitro [7]; [12]): 0%
- cytotoxicity at 3 h (in vitro [7]; [13]): 0%
- cytotoxicity at 42 h (in vitro [7]; [11]): 5%
- cytotoxicity at 42 h (in vitro [7]; [12]): 7%
- cytotoxicity at 42 h (in vitro [7]; [13]): 23%
- cytotoxicity at 42 h (in vitro [7]; first experimentation, C6 = 50 μg/ml): 32%
- cytotoxicity at 68 h (in vitro [7]; [11]): 5%
- cytotoxicity at 68 h (in vitro [7]; [12]): 9%
- cytotoxicity at 68 h (in vitro [7]; [13]): 20%
- cytotoxicity at 72 h (in vitro [7]; [11]): 9%
- cytotoxicity at 72 h (in vitro [7]; [12]): 12%
- cytotoxicity at 72 h (in vitro [7]; [13]): 35%
- Basophils (leucocytes from rats [8]; 6 hours after administration): 0
- Eosinophils (leucocytes from rats [8]; 6 hours after administration): 0
- Lymphocytes (leucocytes from rats [8]; 6 hours after administration, 2 mg/kg): 94 and 82 and 86
- Basophils (leucocytes from rats [8]; before administration): 0
- Eosinophils (leucocytes from rats [8]; before administration): 0
- Lymphocytes (leucocytes from rats [8]; before administration, 2 mg/kg): 84 and 90 and 82
- Monocytes (leucocytes from rats [8]; before administration, 2 mg/kg): 2 and 1
- Neutrophils with segmented nucleus (leucocytes from rats [8]; before administration, 2 mg/kg): 12 and 8
- embodied radioactivity, mean (leucocytes from rats [9]; 6 hours after administration, group mean): 10,664±2,087 cpm
- cpm / number of lymphocytes, mean (leucocytes from rats [9]; 6 hours after administration, group mean, factor and spread printed on following lines): 4.71 × 10^-^2 cpm/number of lymphoc
- Number of lymphocytes/culture (leucocytes from rats [9]; [14]): 172,500 lymphocytes/culture and 244,760 lymphocytes/culture and 261,900 lymphocytes/culture
- embodied radioactivity (leucocytes from rats [9]; [14]): 8,466 cpm and 8,690 cpm and 14,836 cpm
- cpm / number of lymphocytes (immunity response) (leucocytes from rats [9]; 6 hours after administration, individual rat, factor × 10^-^2, 2 mg/kg): 4.91 × 10^-^2 cpm/number of lymphoc and 3.55 × 10^-^2 cpm/number of lymphoc and 5.66 × 10^-^2 cpm/number of lymphoc
- embodied radioactivity, mean (leucocytes from rats [9]; before administration, group mean): 12,227±2,228 cpm
- Number of lymphocytes/culture (leucocytes from rats [9]; [15]): 132,480 lymphocytes/culture and 147,000 lymphocytes/culture and 271,460 lymphocytes/culture and 257,060 lymphocytes/culture
- embodied radioactivity (leucocytes from rats [9]; [15]): 7,384 cpm and 10,195 cpm and 7,709 cpm and 13,619 cpm
- Leucocytes / mm^3 (leucocytes from rats [10]; experiment 1, 6 hours after administration, 2 mg/kg): 9,050 / mm^3 and 8,450 / mm^3 and 9,350 / mm^3
- Leucocytes / mm^3 (leucocytes from rats [10]; experiment 1, before administration, 2 mg/kg): 9,050 / mm^3 and 12,250 / mm^3 and 17,525 / mm^3
- Leucocytes / mm^3 (leucocytes from rats [10]; experiment 2, 6 hours after administration): 5,400 / mm^3
- Leucocytes / mm^3 (leucocytes from rats [10]; experiment 2, before administration, 2 mg/kg): 5,900 / mm^3 and 9,350 / mm^3
- Leucocytes / mm^3 (leucocytes from rats [10]; experiment 3, 6 hours after administration): 13,500 / mm^3
- Leucocytes / mm^3 (leucocytes from rats [10]; experiment 3, before administration, 2 mg/kg): 13,250 / mm^3 and 7,200 / mm^3
